These results are taken from PubChem BioAssay (NCI).

Common to all, as to assay: growth of human tumour cells (NCI), 48 h
The subject of assay [1] is OVCAR-3 ovarian.
For assay [2], the system named is NCI-H460 lung.
Assay [3] has as its system HOP-62 NSCLC.
The test system of assay [4] is MDA-MB-435.
Assay [5] concerns HCT-15 colon.
The test system of assay [6] is SR leukemia.
The subject of assay [7] is MOLT-4 leukemia.
The test system of assay [8] is SF-268 CNS.
Assay [9] has as its system HT29 colon.
Assay [10] concerns OVCAR-4 ovarian.

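Exposure lasted 48 hours, with cells grown in 96-well plates and compounds tested at five concentrations. GI50: concentration for 50% inhibition of growth. TGI denotes the concentration required for complete inhibition of growth.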

On to `CCCC[C@H](NC(=O)[C@H]1CCCN1C)C(=O)N(C)[C@H](C[C@@H](OC(C)=O)c1nc(C(=O)N[C@@H](Cc2ccccc2)C[C@H](C)C(=O)OCC)cs1)C(C)C`, for which the GI50 in assay [1] was 0.0083 µM; in [2], 0.0105 µM; in [3], 0.0439 µM; in assay [4], less than 0.00333 µM; in [5], 0.0365 µM; in [6] it was less than 0.00333 µM. Also, the GI50 in [7] was 0.0258 µM; in assay [8] it was 0.0217 µM; in assay [9], 0.00974 µM; in [10], 0.357 µM. Also, the TGI in assay [1] is 6.38 µM; in assay [2] it was 4.04 µM; in [3] it was greater than 33.3 µM; in assay [4], 0.00655 µM; in assay [5], greater than 33.3 µM; in assay [6], 5.24 µM. Moreover, the TGI was 15.5 µM in assay [7], 25.2 µM in assay [8], 0.0414 µM in assay [9] and greater than 33.3 µM in assay [10].
For `Cc1c(C(=O)/C=C/c2csc3ccccc23)[n+](=O)c2ccccc2n1[O-]`, the GI50 in [1] is 1.32 µM; in [2] it was 1.41 µM; in assay [3], 1.41 µM; in assay [4], 1.73 µM; in assay [5], 1.83 µM; in [6] it was 1.79 µM. The GI50 in [7] is 2.71 µM; in assay [8] it was 1.44 µM; in [9] it was 2.2 µM; in [10], 1.98 µM. In addition, the TGI in [1] amounted to 2.62 µM; in [2], 2.71 µM; in assay [3] it was 2.8 µM; in assay [4] it was 3.26 µM; in [5], 4.4 µM; in assay [6], 8.69 µM. For the same molecule, the TGI is 7 µM in assay [7], 2.78 µM in assay [8], 4.13 µM in assay [9] and 4.83 µM in assay [10].
On to `COc1cc(Cl)cc(-c2nn(C(=O)NCCN3CCOCC3)cc2-c2ccncc2)c1`, for which the GI50 in assay [1] is 2.41 µM; in assay [2], 3.81 µM; in [3], 6.03 µM; in [4], 0.604 µM; in [5] it was 3.79 µM; in assay [6], 5.92 µM. The GI50 in assay [7] was 3.78 µM; in assay [8], 6.69 µM; in [9], 3.98 µM; in assay [10] it was 12.6 µM. Also, the TGI in [1] is 7.11 µM; in assay [2] it was greater than 100 µM; in assay [3], 63.6 µM; in assay [4] it was 3.61 µM; in assay [5], greater than 100 µM; in assay [6] it was greater than 100 µM. Moreover, the TGI in assay [7], in [8], in assay [9] and in [10] was greater than 100 µM in each case.
Consider `CCCN=Cc1cc(Cc2ccc(O)c(C=NCCC)c2)ccc1O`, for which the TGI in assay [1] is 14.4 µM; in assay [2] it was 51.9 µM; in assay [3], greater than 100 µM; in [4], greater than 100 µM; in assay [5], 12.3 µM; in assay [7], 3.71 µM. The TGI in assay [8] came to 46.4 µM; in assay [9], 27.6 µM; in assay [10], 86.1 µM.
For the molecule `CC1(C)SC2C(NC(=O)C(N)c3ccccc3)C(=O)N2C1C(=O)O` (stereo not given), the TGI in assay [1], in assay [2], in assay [3], in assay [4], in [5] and in assay [6] was greater than 100 µM each time. Besides, the TGI in assay [7], in [8] and in assay [9] was greater than 100 µM each time.
As to `CN1CCN(CCc2cccc(C(=O)c3cnn(-c4ccc(F)cc4)c3N)c2)CC1`, the GI50 in [1], in assay [2], in assay [3], in assay [4], in assay [5] and in assay [6] was greater than 25 µM throughout. The GI50 in [7], in [8], in [9] and in assay [10] was greater than 25 µM throughout. The TGI in [1], in [2], in [3], in assay [4], in assay [5] and in assay [6] was greater than 25 µM in each case. Besides, the TGI in assay [7], in [8], in assay [9] and in [10] was greater than 25 µM in each case.
For the molecule `CN(C)/C=C/c1nnc([N+](=O)[O-])s1`, the TGI in [1] is 7.58 µM; in assay [2], 33.1 µM; in assay [3], 51.5 µM; in [4], 14.2 µM; in assay [5], 32.2 µM; in assay [8], 42.1 µM. In assay [9], this molecule displayed a TGI of 14.6 µM.
As for `COc1ccc(N2C(C)=C(C#N)C34C(=O)N(c5ccccc5)C(=O)C3=C(O)C=CC24O)cc1` (stereo not given), the GI50 is 1.76 µM in [1]; 14.6 µM in assay [2]; 22.7 µM in assay [3]; 5.5 µM in assay [4]; 13.8 µM in assay [5]; 5.98 µM in [6]. The GI50 in assay [7] was 21.2 µM; in assay [8], 16.6 µM; in assay [9] it was 12.3 µM; in assay [10] it was 24.4 µM. Further, the TGI in assay [1] amounted to 10.4 µM; in assay [2] it was 61.4 µM; in [3], 75.8 µM; in [4], 28.7 µM; in [5], 33.8 µM; in assay [6] it was 50.4 µM. For the same molecule, the TGI in assay [7] came to 71.7 µM; in assay [8], 80.2 µM; in assay [9], 28.3 µM; in assay [10], 94.5 µM.
On to `CNC(=O)c1cncc(/C=C/c2ccccc2C)c1`, for which the GI50 in assay [1], in [2], in [3], in assay [4], in assay [5] and in assay [6] was greater than 25 µM throughout. The GI50 in assay [7], in assay [8], in assay [9] and in assay [10] was greater than 25 µM each time. In addition, the TGI in assay [1], in [2], in [3], in assay [4], in assay [5] and in [6] was greater than 25 µM in each case. For the same molecule, the TGI in assay [7], in assay [8], in [9] and in [10] was greater than 25 µM throughout.
